From patent US7018642B2 (The Procter & Gamble Company, priority 2001, dated 2006)

What was measured:
Type in all cases: cell-based
[1] = test system: S. epidermidis strain ATCC 35984; test: Biofilm prevention screen (96-well microplate, crystal violet); settings: Staphylococcus epidermidis, positive = prevention, negative = enhancement of biofilm formation, quadruplicate, read-out: average percentage reduction of biofilm formed relative to DMSO controls; for inhibition at 32 µM: ATCC35984, 32 μM; for inhibition at 160 µM: ATCC35984, 160 μM; for inhibition at 390 µM: ATCC35984, 390 μM
Experimental: (§1) Overnight cultures of 3 mL are made of P. aeruginosa strain PAO1 (grown in R2A medium (Handbook of Microbiological Media; CRC Press, 1997, second edition, R. M. Atlas, ed.), modified to omit Mg^2+ but to include 0.3–0.5% fructose (pH 7.0) and 3 μM ferrous ammonium sulfate), P. fluorescens strain ATCC 13525 (grown in R2A modified to omit Mg^2+ but to include 0.3–0.5% sodium pyruvate (pH 7.0)), S. epidermidis strain ATCC 35984 (grown in a ¼ dilution of TSB (Handbook of Microbiological Media; CRC Press, 1997, second edition, R. M. Atlas, ed.) supplemented with 1% fructose (pH 7.0) and 3 μM ferrous ammonium sulfate). To each type of growth medium, HEPES (pH 7.3) is optionally added to a final concentration of 10 mM.
(§2) To PS, PVC, or PP (preferably PP or PVC) round-bottom, 96-well microplates containing 100 μl per well of the respective growth medium as described above, compounds to be tested (dissolved in DMSO) are added and mixed, to give a final concentration of 250–500 μM. These microplates then also are used to make successive dilutions of the compounds in the same respective growth medium to yield microplates containing final concentrations of, for example, 160 μM and 32 μM of the same set of compounds. Control wells are included in the dilution series that contain only DMSO. From the 3 ml overnight cultures, each of the three dilution plate sets is inoculated with 5 μl per well of a 1:1 dilution in the same liquid growth media of the appropriate culture. The covered plate is then incubated with shaking, at 30° C. (for P. aeruginosa or P. fluorescens) or 37° C. (for S. epidermidis), at 200 rpm, for 16–26 hours, in a humidity controlled environment.
(§3) Cells present in biofilm attached to the microplate surface are stained with CV either after removal of the liquid from each well, followed by rinsing three times (aspiration and addition) with 150 μl per well phosphate buffered saline solution (PBS) and final addition of 100 μl per well of PBS, or by direct addition of stain to bacterial cultures without rinsing. To 100 μl per well of PBS or of bacterial culture, 25 μl/well of 1% CV solution (in ˜10% ethanol) is added. After incubation at room temperature for 45 minutes, the dye solution is removed from the plates. Residual dye is immediately removed by gentle rinsing with a stream of deionized water by filling and inverting the plates 4–5 times, or by using an automated pipettor. Rinsed plates are air-dried at room temperature for 0.5–2 hours. Bound dye is extracted by the addition of 150 μL per well of 95% ethanol, followed by vigorous mixing for 10–15 seconds and incubation for 45 minutes at room temperature without shaking. Subsequently, either undiluted or diluted (in ethanol) samples of extracted CV are transferred to flat bottom, polystyrene microtiter plates and absorbances at 586 nm were measured in a microplate reader. Readings from wells containing compounds are compared to the average of data from control wells that contain only DMSO. Replicate samples are measured, and results are reported as averages of the replicate well data points.
(§4) Data are expressed in terms of the average percentage reduction of biofilm formed in the presence of each compound, relative to the DMSO controls, for quadruplicate samples. Assays are run using the three compound concentrations indicated. Positive numbers indicate prevention of biofilm formation by a compound, and negative numbers indicate enhancement of biofilm formation by a compound (percentage coefficients of variation are ≦10%).

[2] = test system: P. fluorescens strain ATCC 13525; test: as above; settings: Pseudomonas fluorescens, positive = prevention, negative = enhancement of biofilm formation, quadruplicate, read-out: average percentage reduction of biofilm formed relative to DMSO controls; for inhibition at 32 µM: ATCC13525, 32 μM; for inhibition at 160 µM: ATCC13525, 160 μM; for inhibition at 390 µM: ATCC13525, 390 μM
Experimental: as §1, §2, §3, §4

[3] = test system: P. aeruginosa strain PAO1; test: as above; settings: Pseudomonas aeruginosa, positive = prevention, negative = enhancement of biofilm formation, quadruplicate, read-out: average percentage reduction of biofilm formed relative to DMSO controls
Experimental: as §1, §2, §3, §4

[4] = test system: S. epidermidis strain ATCC 35984; test: Improved biofilm dispersion screen (already-formed biofilms, crystal violet); settings: Staphylococcus epidermidis, ATCC35984, no NaOH, positive = dispersion, negative = enhancement of pre-existing biofilm, quadruplicate, read-out: average percentage reduction of biofilm relative to the two control values (dispersion)
Experimental: (§5) A modification of method disclosed in Reference Example 2, which greatly improves the sensitivity and reproducibility of the dispersion screen is hereby disclosed. […] In the modification described herein, compounds are added in the presence of the fresh liquid growth media, such that the resultant biofilms continue to grow, unless a test compound triggers their dispersion. Overnight cultures are made as above, and 100 μL of the appropriate liquid growth media are dispensed into duplicate 96 well microplates—in this fashion, two identical microplates are set up for each bacterial species to be assayed. Neither compounds nor DMSO are added prior to the inoculation of bacteria, and growth in the duplicate plates for 24 hours is allowed using the conditions specified in Reference Example 1. After growth of biofilm to be tested in the wells, cells present in biofilm attached to one of the duplicate microplates is stained with CV, quantitated as described in Reference Example 1, and the data for the entire plate averaged, resulting in a growth control value, t0. The remaining replicate of each microplate pairs is treated with compounds in DMSO, or DMSO alone for control wells, by first removing the cell suspensions from the wells, then adding fresh 100 μL volumes of the same appropriate liquid growth media, followed by direct addition and mixing of the compound DMSO solutions to give final compound concentrations of 390 μM. Incubation of the compound-containing microplates is then continued for an additional 22–26 hours using the same conditions described in Reference Example 1. Cell suspensions are then removed, 100 μL per well of a 0 mM NaOH (S. epidermidis), 20 mM NaOH (P. fluorescens), or 30 mM NaOH (P. aeruginosa) solution in PBS is added, and incubation at room temperature is allowed for 30 minutes. No addition of NaOH is made to the S. epidermidis suspension since a test assay indicated no amplification by base with S. epidermidis. The microplates are subsequently rinsed three times with 150 μL per well of PBS, followed by final liquid removal, staining with CV and quantitation as described in Reference Example 1. Data for each well that contained compound result in a compound value, R, and data for control wells that contained DMSO only are averaged to generate a second control value, t24. The effect of each compound tested on dispersion of the biofilm compared to the two control values is calculated thus: [formula] […] Data are expressed in terms of the average percentage reduction of biofilm formed in the presence of each compound, relative to the two control values, for quadruplicate samples. Assays are run as described above, using compound concentrations of 390 μM. Positive numbers indicate dispersion (reduction) of pre-existing biofilms by a compound, and negative numbers indicate enhancement (stimulation of growth) of pre-existing biofilms by a compound (percentage coefficients of variation are ≦15%).

[5] = test system: P. fluorescens strain ATCC 13525; test: as above; settings: Pseudomonas fluorescens, ATCC13525, 20 mM NaOH step, positive = dispersion, negative = enhancement of pre-existing biofilm, quadruplicate, read-out: average percentage reduction of biofilm relative to the two control values (dispersion)
Experimental: as §5

[6] = test system: P. aeruginosa strain PAO1; test: as above; settings: Pseudomonas aeruginosa, 30 mM NaOH step, positive = dispersion, negative = enhancement of pre-existing biofilm, quadruplicate, read-out: average percentage reduction of biofilm relative to the two control values (dispersion)
Experimental: as §5

| SMILES | inhibition at 32 µM [1] [%] | inhibition at 160 µM [1] [%] | inhibition at 390 µM [1] [%] | inhibition at 32 µM [2] [%] | inhibition at 160 µM [2] [%] | inhibition at 390 µM [2] [%] | inhibition at 32 µM [3] [%] | inhibition at 160 µM [3] [%] | inhibition at 390 µM [3] [%] | inhibition at 390 µM [4] [%] | inhibition at 390 µM [5] [%] | inhibition at 390 µM [6] [%] |
| --- | --- | --- | --- | --- | --- | --- | --- | --- | --- | --- | --- | --- |
| CCCCCCNC(=O)[C@H]1CCCN1C(=O)OC(C)(C)C [Compound 153] | -8 | -7 | -17 | 7 | 4 | -3 | -9 | -6 | -4 | -10 | 1 | -7 |
| CCCCCCNC(=O)[C@@H]1CCN1 [Compound 287] | 74 | 101 | 101 | -42 | -7 | 40 | -1 | 11 | -2 | 71 | -18 | -70 |
| CCCCCCCCCCNC(=O)[C@@H]1CCCN1C(=O)OC(C)(C)C [Compound 12, N-(tert-Butoxycarbonyl)-L-proline n-decyl amide] | -21 | -2 | 31 | -16 | -42 | -37 | 6 | -45 | -32 | 0 | -30 | -30 |
| CCCCCCNC(=O)[C@@H]1CCCN1C(=O)OC(C)(C)C [Compound 10] | -18 | -17 | -25 | -1 | -5 | -6 | -7 | -16 | -16 | -6 | -2 | -9 |
| CCCCCCCCNC(=O)[C@@H]1CCCCN1 [Compound 20] | 1 | 1 | -59 | -16 | -14 | 40 | -16 | -22 | 15 | 0 | 25 | 46 |
| CCCCNC(=O)[C@@H]1CCCN1 [Compound 165] | -6 | -15 | -12 | 10 | 4 | 20 | 2 | -16 | 1 | -3 | 6 | 0 |
| CCCCCCCCNC(=O)C1CCCN1C(C)=O (centres unmarked) [Compound 8] | -13 | -22 | -32 | -12 | -26 | -24 | -9 | -11 | -9 | 0 | -1 | -30 |
| CCCCCCNC(=O)[C@@H]1CCN1C(=O)OC(C)(C)C [Compound 283] | -3 | -10 | -23 | 3 | -1 | 13 | -7 | -10 | 0 | -11 | 0 | -11 |
| CCCCCCCCCCCCNC(=O)[C@@H]1CCN1C(=O)OC(C)(C)C [Compound 286] | -15 | -29 | 12 | -9 | -60 | -98 | -5 | -22 | -54 | 0 |  | -83 |
